Measurements as given in paper PMC7188855, “Nucleic acid recognition and antiviral activity of 1,4-substituted terphenyl compounds mimicking all faces of the HIV-1 Rev protein positively-charged α-helix” (Scientific Reports, 2020).

What was measured:
[1] = test system: RRE-Rev system (unspliced, single-spliced, multiple-spliced HIV-1 transcripts); experiment: RT-qPCR analysis of HIV-1 RNA splicing in MT-2 cells; format: cell-based; settings: 24 and 48 hours post-infection, 100 μM; not statistically significant
Method: Given that splicing takes place in the nucleus, a blockage of the RRE-Rev system should reduce the levels of unspliced or single-spliced transcripts and increase the proportion of multiple-spliced species.
MT-2 cells were infected with a NL4.3 virus for 2 hours (10 ng/10^6 cells) and treated with two different concentrations of compounds 1a, 1d or 3c for 24, 48, 72 or 96 hours. The compound concentrations were chosen on the basis of the observed RRE-Rev IC50 and cellular EC50 values. Total cellular RNA was isolated, treated with DNase I and reverse-transcribed as previously described[21],[22]. Unspliced, single-spliced and multiple-spliced HIV-1 RNA transcripts were quantified by qPCR relative to a control obtained from untreated cells, using the primers described by Mohammadi et al.[48], and GAPDH as an endogenous control.

[2] = target: DNA duplex DNAd; experiment: Isothermal titration calorimetry with DNAd duplex; format: binding; settings: 25 °C, 10 mM sodium phosphate pH 8.2, 0.1 mM EDTA, read-out: equilibrium dissociation constant, related DNA duplex (ITC)
Method: These experiments were performed at 25 °C in MicroCal PEAQ-ITC or Nano-ITC microcalorimeters, and the data was subsequently analysed with MicroCal or Nanoanalyze software, respectively. All species were dissolved in aqueous solutions containing 10 mM sodium phosphate (pH 7.4 or 8.2) and 0.1 mM EDTA. For the IIBh:1a interaction the pH was 7.4, and 10 or 20 μM solutions of IIBh in the sample cell were titrated with 19 injections of 350 or 500 μM solutions of 1a. […]. […] For the DNAd:1a interaction, the pH was 8.2, and 800 or 900 μM solutions of 1a were titrated into 20 μM solutions of DNAd duplex in the sample cell with 19 injections of 2 µL. In both cases, the titration experiments were repeated three times, and the resulting association curves were fitted using a model with a single set of binding sites.

SMILES | pattern of unspliced, single-spliced and multiple-spliced viral transcripts [1] | Kd [2]
Cc1cc(-c2cc(CCN)ccc2CCN)c(C)cc1-c1cc(CCN)ccc1CCN [Compound 1d] | clearest patterns consistent with RRE-Rev inhibition | –
COc1cc(CCN)c(-c2cc(C)c(-c3cc(CCN)c(OC)cc3CCN)cc2C)cc1CCN [Compound 1a] | – | 6.3 µM
